Assay results reported in US11214594B2, “Antimicrobial peptide having synergistic antibacterial effect with antibiotics on multidrug resistant bacteria, and use thereof” (priority 2016, dated 2022).
In brackets after ≈: the same amount, converted by molar mass. Where two headings read alike, the source gives them in different places. Where a SMILES comes first, the peptide text is derived from it. [ ]: non-standard residue; d: D form.

Tests used:
[1] = tested on: MDREC 1229; format: cell-based, Escherichia coli
Outline: (§1)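 Strains in MH medium at 2×10^6 CFU/ml were mixed with peptide diluted stepwise (2:1) from its MIC, then antibiotic dilutions in MH medium were added to give the antibiotic MIC. The reversed set-up, peptide titrated against fixed antibiotic, gave the peptide MIC.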

[2] = tested on: E. coli; test: microbe, parasite or virus in culture; format: cell-based, Escherichia coli; conditions: 16 h
Outline: (§2)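 Broth microdilution in MH medium: bacterial strains diluted to 2×10^6 CFU were mixed with equal volumes of peptide serially diluted twofold in MH medium.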

[3] = tested on: MDREC 1229; test: microbe, parasite or virus in culture; format: cell-based, Escherichia coli
Outline: as §2

[4] = tested on: B. subtilis; test: microbe, parasite or virus in culture; format: cell-based, Bacillus subtilis
Outline: as §2

[5] = tested on: MDRAB 12036; format: cell-based, Acinetobacter baumannii
Outline: as §2

[6] = tested on: E. coli; test: MIC of antibiotic during combined treatment with antimicrobial peptide; format: cell-based, Escherichia coli; conditions: for Antibiotic MIC, Erythromycin / Antibiotic MIC, Linezolid / Antibiotic MIC, Vancomycin: E. coli
Outline: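 Checkerboard-type MIC of peptide–antibiotic mixtures in MH medium: the antibiotic was serially diluted in MH medium and added to wells, then the reversed arrangement was also tested.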

[7] = tested on: MDRAB 12035; test: MIC of antimicrobial peptide during combined treatment with antibiotic; format: cell-based, Acinetobacter baumannii
Outline: as §1

[8] = tested on: A. baumannii; test: as above; format: cell-based, Acinetobacter baumannii
Outline: as §1

[9] = vancomycin 512 μg/ml (Conc./MIC 1/2)
[10] = vancomycin 1024 μg/ml (Conc./MIC 1)
[11] = erythromycin 4 μg/ml (Conc./MIC 1/8)
[12] = erythromycin 8 μg/ml (Conc./MIC 1/4)
[13] = erythromycin 16 μg/ml (Conc./MIC 1/2)
[14] = erythromycin 32 μg/ml (Conc./MIC 1)

CC[C@H](C)[C@H](NC(=O)[C@H](CCCCN)NC(=O)[C@H](Cc1c[nH]c2ccccc12)NC(=O)[C@@H](N)CCCNC(=N)N)C(=O)N[C@@H](Cc1ccccc1)C(=O)N[C@@H](CCCCN)C(=O)N[C@@H](CCCCN)C(=O)N[C@H](C(=O)N[C@H](CCCCN)C(=O)N[C@@H](CCCCN)C(=O)N[C@@H](CC(C)C)C(=O)N[C@@H](CC(C)C)C(=O)N[C@@H](Cc1c[nH]cn1)C(=O)N[C@@H](CO)C(=O)N[C@@H](C)C(=O)N[C@@H](CCCCN)C(=O)N[C@@H](CCCCN)C(=O)N[C@@H](Cc1c[nH]c2ccccc12)C(N)=O)[C@@H](C)CC [PapMA-16, RWK IFK KIk KLL HSA KKW-NH2] (H-RWKIFKKI[dK]KLLHSAKKW-NH2; N-terminus assumed)
Peptide MIC during treatment with antibiotic ([1]; linezolid […] (Conc./MIC 1/2)): 1 µg/mL | Peptide MIC during treatment with antibiotic ([1]; linezolid […] (Conc./MIC 1/4)): 2 µg/mL | Peptide MIC during treatment with antibiotic [1, 9]: 2 µg/mL | Peptide MIC during treatment with antibiotic [1, 10]: 1 µg/mL | Peptide MIC during treatment with antibiotic ([1]; vancomycin […] (Conc./MIC 1/4)): 4 µg/mL | Peptide MIC during treatment with antibiotic ([1]; vancomycin […] (Conc./MIC 1/8)): 8 µg/mL | Minimal inhibitory concentration MIC [2]: 64 µg/mL (≈ 27.4 µM) | Minimal inhibitory concentration MIC [3]: 64 µg/mL (≈ 27.4 µM) | Peptide MIC, peptide alone [3]: 64 µg/mL | Minimal inhibitory concentration MIC [4]: >128 µg/mL | Minimal inhibitory concentration MIC [5]: 32 µg/mL (≈ 13.7 µM) | Synergistic effect of antibacterial activity with existing antibiotics compared with PapMA-1 ([6]; E. coli and MDREC1229): higher level than the PapMA-1 peptide | Antibiotic MIC, Erythromycin ([6]; erythromycin combined with peptide at 1 μg/ml): 128 µg/mL | Antibiotic MIC, Erythromycin ([6]; erythromycin combined with peptide at 2 μg/ml): 32 µg/mL | Antibiotic MIC, Erythromycin ([6]; erythromycin combined with peptide at 4 μg/ml): 16 µg/mL | Antibiotic MIC, Erythromycin ([6]; erythromycin combined with peptide at 6 μg/ml): 2 µg/mL | Antibiotic MIC, Erythromycin ([6]; erythromycin combined with peptide at 8 μg/ml): 2 µg/mL | Antibiotic MIC, Erythromycin ([6]; erythromycin combined with peptide at 16 μg/ml): 0.25 µg/mL | Antibiotic MIC, Erythromycin ([6]; erythromycin combined with peptide at 32 μg/ml): 0.125 µg/mL | Antibiotic MIC, Erythromycin ([6]; erythromycin combined with peptide at 64 μg/ml): 0 µg/mL | Antibiotic MIC, Linezolid ([6]; linezolid combined with peptide at 1 μg/ml): >128 µg/mL | Antibiotic MIC, Linezolid ([6]; linezolid combined with peptide at 2 μg/ml): >128 µg/mL | Antibiotic MIC, Linezolid ([6]; linezolid combined with peptide at 4 μg/ml): 32 µg/mL | Antibiotic MIC, Linezolid ([6]; linezolid combined with peptide at 6 μg/ml): 16 µg/mL | Antibiotic MIC, Linezolid ([6]; linezolid combined with peptide at 8 μg/ml): 16 µg/mL | Antibiotic MIC, Linezolid ([6]; linezolid combined with peptide at 16 μg/ml): 8 µg/mL | Antibiotic MIC, Linezolid ([6]; linezolid combined with peptide at 32 μg/ml): 4 µg/mL | Antibiotic MIC, Linezolid ([6]; linezolid combined with peptide at 64 μg/ml): 0 µg/mL | Antibiotic MIC, Vancomycin ([6]; vancomycin combined with peptide at 1 μg/ml): >128 µg/mL | Antibiotic MIC, Vancomycin ([6]; vancomycin combined with peptide at 2 μg/ml): >128 µg/mL | Antibiotic MIC, Vancomycin ([6]; vancomycin combined with peptide at 4 μg/ml): >128 µg/mL | Antibiotic MIC, Vancomycin ([6]; vancomycin combined with peptide at 6 μg/ml): 32 µg/mL | Antibiotic MIC, Vancomycin ([6]; vancomycin combined with peptide at 8 μg/ml): 16 µg/mL | Antibiotic MIC, Vancomycin ([6]; vancomycin combined with peptide at 16 μg/ml): 8 µg/mL | Antibiotic MIC, Vancomycin ([6]; vancomycin combined with peptide at 32 μg/ml): 4 µg/mL | Antibiotic MIC, Vancomycin ([6]; vancomycin combined with peptide at 64 μg/ml): 0 µg/mL | Peptide MIC during treatment with erythromycin [7, 11]: 4 µg/mL | Peptide MIC during treatment with erythromycin [7, 12]: 4 µg/mL | Peptide MIC during treatment with erythromycin [7, 13]: 4 µg/mL | Peptide MIC during treatment with erythromycin [7, 14]: 0 µg/mL | Peptide MIC during treatment with linezolid ([7]; linezolid 64 μg/ml (Conc./MIC 1/8)): 4 µg/mL | Peptide MIC during treatment with linezolid ([7]; linezolid 512 μg/ml (Conc./MIC 1)): 0 µg/mL | Peptide MIC during treatment with linezolid ([7]; linezolid […] (Conc./MIC 1/2)): 1 µg/mL | Peptide MIC during treatment with linezolid ([7]; linezolid […] (Conc./MIC 1/4)): 4 µg/mL | Peptide MIC during treatment with vancomycin [7, 9]: 2 µg/mL | Peptide MIC during treatment with vancomycin [7, 10]: 1 µg/mL | Peptide MIC during treatment with vancomycin ([7]; vancomycin […] (Conc./MIC 1/4)): 4 µg/mL | Peptide MIC during treatment with vancomycin ([7]; vancomycin […] (Conc./MIC 1/8)): 8 µg/mL | Peptide MIC during treatment with antibiotic [8, 11]: 4 µg/mL | Peptide MIC during treatment with antibiotic [8, 12]: 4 µg/mL | Peptide MIC during treatment with antibiotic [8, 13]: 2 µg/mL | Peptide MIC during treatment with antibiotic [8, 14]: 0 µg/mL | Peptide MIC during treatment with antibiotic ([8]; linezolid 32 μg/ml (Conc./MIC 1/8)): 8 µg/mL | Peptide MIC during treatment with antibiotic ([8]; linezolid 64 μg/ml (Conc./MIC 1/4)): 8 µg/mL | Peptide MIC during treatment with antibiotic ([8]; linezolid […] (Conc./MIC 1)): 0 µg/mL | Peptide MIC during treatment with antibiotic ([8]; linezolid […] (Conc./MIC 1/2)): 4 µg/mL | Peptide MIC during treatment with antibiotic [8, 9]: 0.25 µg/mL | Peptide MIC during treatment with antibiotic [8, 10]: 0 µg/mL | Peptide MIC during treatment with antibiotic ([8]; vancomycin […] (Conc./MIC 1/4)): 0.5 µg/mL | Peptide MIC during treatment with antibiotic ([8]; vancomycin […] (Conc./MIC 1/8)): 2 µg/mL
